Laboratory results published in paper PMC10428205, “Cytotoxicity of Ruthenium(II) Arene Complexes Containing Functionalized Ferrocenyl β-Diketonate Ligands” (Organometallics, 2023).

Columns and labels:
MIA PaCa-2 = experiment: Chemosensitivity under hypoxic conditions (0.1% O2, 96 h MTT); type: cell-based, human
Procedure: (§1) LogP = Log ( [C]final ) Eqn1
(§2) 96 h Chemosensitivity Studies
(§3) In vitro chemosensitivity tests were performed at both the University of Huddersfield and the Institute of Cancer Therapeutics, Bradford, in a sterile Class II Biological Safety Cabinet fitted with a HEPA filtered laminar airflow.
(§4) Cellular assays were conducted against human pancreatic carcinoma (MIA PaCa-2), human colorectal carcinoma p53-wildtype (HCT116 p53+/+), and human non-cancerous epithelial retinal cells (ARPE-19). The ARPE-19 cells were obtained from the American Type Culture Collection and provided by the University of Huddersfield. All cell lines were routinely maintained as monolayer cultures in appropriate complete medium and maintained in either T-25 or T-75 flasks at 37 °C and 5% CO2. MIA PaCa-2 and ARPE-19 cells were cultured in high glucose DMEM-F12 medium containing 10% foetal calf serum, and HCT116 p53+/+ was cultured in RPMI 1640 supplemented with 10% foetal calf serum. All medium was supplemented with sodium pyruvate (1 mM) and L-glutamine (2 mM), and prior to chemosensitivity studies, cell monolayers were passaged using Trypsin-EDTA and diluted to a concentration of 1 x 10^4 cells/mL. All assays were conducted using 96-well plates, in which […] of the 1 x 10^4 cells/mL cell suspension was added to each well and incubated for 24 h at 37 °C and 5% CO2. […] After mixing well, the absorbance of each well was measured at 540 nm using a ThermoFisher Multiskan FC spectrophotometer microplate reader. Using the blank and 100% cell controls, the % cell viability was determined [(abs. of compound containing wells – abs. media wells)/(abs. 100% cell suspension well control)] and from this the % cell death (100%- % cell viability) was calculated. On a logarithmic scale, the percentage cell death was plotted against the concentration of compound, and from this the half maximal inhibitory concentration (IC50) value was determined. […]

HCT116 p53+/+ = experiment: 96 h MTT chemosensitivity assay; type: cell-based, human
Procedure: as §1, §2, §3
Cellular assays were conducted against human pancreatic carcinoma (MIA PaCa-2), human colorectal carcinoma p53-wildtype (HCT116 p53+/+), and human non-cancerous epithelial retinal cells (ARPE-19). The ARPE-19 cells were obtained from the American Type Culture Collection and provided by the University of Huddersfield. All cell lines were routinely maintained as monolayer cultures in appropriate complete medium and maintained in either T-25 or T-75 flasks at 37 °C and 5% CO2. MIA PaCa-2 and ARPE-19 cells were cultured in high glucose DMEM-F12 medium containing 10% foetal calf serum, and HCT116 p53+/+ was cultured in RPMI 1640 supplemented with 10% foetal calf serum. All medium was supplemented with sodium pyruvate (1 mM) and L-glutamine (2 mM), and prior to chemosensitivity studies, cell monolayers were passaged using Trypsin-EDTA and diluted to a concentration of 1 x 10^4 cells/mL. All assays were conducted using 96-well plates, in which […] of the 1 x 10^4 cells/mL cell suspension was added to each well and incubated for 24 h at 37 °C and 5% CO2. After 24 h, 100 mL of drug dilutions (fresh 100 mM stock solutions in DMSO) in media were added to the plates and then incubated for a further 96 h at 37°C and 5% CO2 (48 h + 48 h recovery period were used for the shorter exposures with MIA PaCa-2 cells only). After 96 h, 20 mL MTT (3-(4,5-dimethylthiazol-2-yl)-2,5-diphenyltetrazolium bromide, 5 mg/mL) was added to each well and incubated for 3 h at 37 °C and 5% CO2. All solutions were then removed from the 96-well plates via pipette and […] of DMSO added to each well to dissolve the purple formazan crystals. After mixing well, the absorbance of each well was measured at 540 nm using a ThermoFisher Multiskan FC spectrophotometer microplate reader. Using the blank and 100% cell controls, the % cell viability was determined [(abs. of compound containing wells – abs. media wells)/(abs. 100% cell suspension well control)] and from this the % cell death (100%- % cell viability) was calculated. On a logarithmic scale, the percentage cell death was plotted against the concentration of compound, and from this the half maximal inhibitory concentration (IC50) value was determined. Each of the experiments were performed in triplicate with mean values being stated as the IC50 ± Standard Deviation (SD). […]
(§5) All assays were conducted in triplicate.

[1] = Hydrophobicity, octanol-water shake-flask; type: physicochemical
Procedure: curves to give an average concentration for shaken samples ([C]final). The concentration of an unshaken sample
of stock solution was determined to give [C]initial. The partition coefficient (LogP) was determined with by Eqn1. […]
as §5

ARPE-19 = experiment: 96 h MTT chemosensitivity assay, normal cells; type: cell-based, human; conditions: normal retinal epithelial cells, ± SD, read-out: IC50 against ARPE-19
Procedure: as §1, §2, §3, §4

[NH2][Pt]([NH2])([Cl])[Cl] [CDDP, cisplatin, reference compound]
IC50 (MIA PaCa-2; MIA PaCa-2, 0.1% O2, 96 h MTT): > 50 µM | fold loss of activity from normoxic to hypoxic conditions (MIA PaCa-2; MIA PaCa-2, 21% vs 0.1% O2): > 14 fold | Selectivity index (SI), IC50 ARPE-19 / IC50 HCT116 p53+/+ (HCT116 p53+/+; 96 h, * = minimum value as at least one IC50 > 100): 1.8 | IC50 (HCT116 p53+/+; 96 h MTT, ± SD, read-out: IC50 against HCT116 p53+/+): 3.3 ± 0.4 µM | LogP [1]: -2.20 ± 0.20 | IC50 (ARPE-19): 6 ± 1 µM
